# Assays:
# souris = assay: Acute toxicity after intravenous administration to mice; assay type: in vivo
# Protocol: Enfin, on a vérifié que les dérivés de l'invention ne présentaient pas de toxicité aigüe. Ainsi, l'administration intraveineuse à des souris, de 20 ml/kg des solutions à : • - 100 mg/I de (F-butyl-2')éthylbétaïne (ex. 4), • - 100 mg/l de (F-hexyl-2')éthylbétaïne (ex. 5), • - 100 mg/I de (F-octyl-2')éthylbétaïne (ex. 6), et • - 500 mg/I de (F-octyl-3"propylcarbamoyl)-4'butylbétaïne (ex. 14), dans de l'eau à 9 pour mille de NaCl, a été bien tolérée.
# [1] = Interfacial tension between aqueous solutions and perfluorodecalin; assay type: physicochemical; conditions: solution in water vs perfluorodécaline, 20°C
# Protocol: (§1) Pour illustrer le caractère fortement tensioactif des dérivés fluorés de l'invention, on a effectué des mesures à 20°C de la tension superficielle de solutions dans l'eau de ces dérivés, ainsi que de la tension interfaciale entre ces solutions et un composé perfluoré constitué par la perfluorodécaline.
# (§2) On précise que dans les conditions de ces mesures: • - la tension superficielle de l'eau à 20°C est de 73,0± 0,2mN.m-^1, et • - la tension interfaciale entre l'eau et la perfluorodécaline à 20°C est de 56,0 ± 0,2 mN.m-^1.
# globules rouges humains = assay: Haemolysis test on human red blood cells; assay type: cell-based
# [2] = system: cultures cellulaires lymphoblastoïdes de la souche Namalva; assay: Biocompatibility on lymphoblastoid cell cultures (growth, multiplication, subculturing); assay type: cell-based
# Source text: Pour tester la biocompatibilité des dérivés de l'invention, on a vérifié que ces dérivés n'avaient pas d'effet sur la croissance, la multiplication et le repiquage de cultures cellulaires lymphoblastoïdes de la souche Namalva.
# [3] = Surface tension of aqueous solutions of the fluorinated derivatives; assay type: physicochemical; conditions: solution in water, 20°C
# Protocol: as §1, §2
# [4] = 20 ml/kg of a 100 mg/l solution in water with 9 per mille NaCl
# [5] = solution 1 g/l in water with 9 per mille NaCl
# [6] = solution 5 g/l in water with 9 per mille NaCl
# [7] = solution 500 mg/l in water with 9 per mille NaCl
SMILES,toxicité aigüe (tolérance) (souris; [4]),"Tension interfaciale/ F-décaline ([1]; concentration 0,01 g/l)","Tension interfaciale/ F-décaline ([1]; concentration 0,1 g/l)",Tension interfaciale/ F-décaline ([1]; concentration 1 g/l),hémolyse des globules rouges humains (globules rouges humains; [5]),"croissance, multiplication et repiquage des cultures [2, 5]","Tension superficielle ([3]; concentration 0,01 g/l)","Tension superficielle ([3]; concentration 0,1 g/l)",Tension superficielle ([3]; concentration 1 g/l),hémolyse des globules rouges humains (globules rouges humains; [6]),toxicité aigüe (tolérance) (souris; 20 ml/kg of a 500 mg/l solution in water with 9 per mille NaCl),hémolyse des globules rouges humains (globules rouges humains; [7]),"croissance, multiplication et repiquage des cultures [2, 7]"
"C[N+](C)(C)C(CCC(F)(F)C(F)(F)C(F)(F)C(F)(F)C(F)(F)C(F)(F)C(F)(F)C(F)(F)F)C(=O)[O-] (centres unmarked) [(F-octyl-2')éthyl bétaïne de l'Ex. 6, (F-octyl-2')éthyl bétaïne]",bien tolérée,"7,5 mN.m^-1","3,4 mN.m^-1","2,8 mN.m^-1",ne provoquent pas l'hémolyse,"ne perturbent pas la croissance, la multiplication et le repiquage de ces cultures","25,6 mN.m^-1","19,9 mN.m^-1","19,1 mN.m^-1",–,–,–,–
C[C@H](CCC(=O)NC(CCC(F)(F)C(F)(F)C(F)(F)C(F)(F)C(F)(F)C(F)(F)F)C(=O)O)[C@H]1CC[C@H]2[C@@H]3[C@H](O)C[C@@H]4C[C@H](O)CC[C@]4(C)[C@H]3C[C@H](O)[C@]12C (some centres unmarked),–,–,–,"4,7 mN.m^-1",–,–,–,–,"28,5 mN.m^-1",–,–,–,–
O=C(O)CNC(=O)CCC(F)(F)C(F)(F)C(F)(F)C(F)(F)C(F)(F)C(F)(F)C(F)(F)C(F)(F)F [(F-octyl-3' propylcarbamoyl) éthanoate de sodium],–,"41,3 mN.m^-1","25,2 mN.m^-1","7,1 mN.m^-1",–,–,"43,2 mN.m^-1","38,8 mN.m^-1","21,6 mN.m^-1",–,–,–,–
"C[N+](C)(C)C(CCC(F)(F)C(F)(F)C(F)(F)C(F)(F)F)C(=O)[O-] (centres unmarked) [(F-butyl-2')éthyl bétaïne de l'Ex. 4, F-(butyl-2')éthyl bétaïne]",bien tolérée,–,"48,0 mN.m^-1","34,5 mN.m^-1",–,"ne perturbent pas la croissance, la multiplication et le repiquage de ces cultures",–,"68,4 mN.m^-1","49,3 mN.m^-1",ne provoquent pas l'hémolyse,–,–,–
C[N+](C)(C)C(CCCCNC(=O)CCC(F)(F)C(F)(F)C(F)(F)C(F)(F)C(F)(F)C(F)(F)C(F)(F)C(F)(F)F)C(=O)[O-] (centres unmarked) [(triméthylammonio)-2 [(F-octyl)-3' propanoylamino] -6 hexanoate],–,"5,2 mN.m^-1","3,6 mN.m^-1",–,–,–,"22,8 mN.m^-1","19,7 mN.m^-1",–,–,bien tolérée,ne provoquent pas l'hémolyse,"ne perturbent pas la croissance, la multiplication et le repiquage de ces cultures"
"C[N+](C)(C)C(CCC(F)(F)C(F)(F)C(F)(F)C(F)(F)C(F)(F)C(F)(F)F)C(=O)[O-] (centres unmarked) [(F-hexyl-2')éthyl bétaïne de l'Ex. 5, (F-hexyl-2')éthyl bétaïne]",bien tolérée,–,"22,4 mN.m^-1","3,1 mN.m^-1",–,"ne perturbent pas la croissance, la multiplication et le repiquage de ces cultures",–,"39,3 mN.m^-1","20,0 mN.m^-1",ne provoquent pas l'hémolyse,–,–,–

# From patent EP0311473A1, “Fluorinated derivate of amino acids, useful as tensioactive or cotensioactive agents, and preparations for biomedical use containing these derivatives” (AP[…] […] TE[…] ATTA, priority 1987, dated 1989)
